Among the data in US9884828B2, “Substituted cinnolines as inhibitors of LRRK2 kinase activity” (Imago Pharmaceuticals, Inc., priority 2011, dated 2018) are IC50 values, retold here.

The term IC50 denotes the concentration at which inhibition is half-maximal.

Chain of recombinant GST-LRRK2 (wild-type) (Q5S007 whole entry): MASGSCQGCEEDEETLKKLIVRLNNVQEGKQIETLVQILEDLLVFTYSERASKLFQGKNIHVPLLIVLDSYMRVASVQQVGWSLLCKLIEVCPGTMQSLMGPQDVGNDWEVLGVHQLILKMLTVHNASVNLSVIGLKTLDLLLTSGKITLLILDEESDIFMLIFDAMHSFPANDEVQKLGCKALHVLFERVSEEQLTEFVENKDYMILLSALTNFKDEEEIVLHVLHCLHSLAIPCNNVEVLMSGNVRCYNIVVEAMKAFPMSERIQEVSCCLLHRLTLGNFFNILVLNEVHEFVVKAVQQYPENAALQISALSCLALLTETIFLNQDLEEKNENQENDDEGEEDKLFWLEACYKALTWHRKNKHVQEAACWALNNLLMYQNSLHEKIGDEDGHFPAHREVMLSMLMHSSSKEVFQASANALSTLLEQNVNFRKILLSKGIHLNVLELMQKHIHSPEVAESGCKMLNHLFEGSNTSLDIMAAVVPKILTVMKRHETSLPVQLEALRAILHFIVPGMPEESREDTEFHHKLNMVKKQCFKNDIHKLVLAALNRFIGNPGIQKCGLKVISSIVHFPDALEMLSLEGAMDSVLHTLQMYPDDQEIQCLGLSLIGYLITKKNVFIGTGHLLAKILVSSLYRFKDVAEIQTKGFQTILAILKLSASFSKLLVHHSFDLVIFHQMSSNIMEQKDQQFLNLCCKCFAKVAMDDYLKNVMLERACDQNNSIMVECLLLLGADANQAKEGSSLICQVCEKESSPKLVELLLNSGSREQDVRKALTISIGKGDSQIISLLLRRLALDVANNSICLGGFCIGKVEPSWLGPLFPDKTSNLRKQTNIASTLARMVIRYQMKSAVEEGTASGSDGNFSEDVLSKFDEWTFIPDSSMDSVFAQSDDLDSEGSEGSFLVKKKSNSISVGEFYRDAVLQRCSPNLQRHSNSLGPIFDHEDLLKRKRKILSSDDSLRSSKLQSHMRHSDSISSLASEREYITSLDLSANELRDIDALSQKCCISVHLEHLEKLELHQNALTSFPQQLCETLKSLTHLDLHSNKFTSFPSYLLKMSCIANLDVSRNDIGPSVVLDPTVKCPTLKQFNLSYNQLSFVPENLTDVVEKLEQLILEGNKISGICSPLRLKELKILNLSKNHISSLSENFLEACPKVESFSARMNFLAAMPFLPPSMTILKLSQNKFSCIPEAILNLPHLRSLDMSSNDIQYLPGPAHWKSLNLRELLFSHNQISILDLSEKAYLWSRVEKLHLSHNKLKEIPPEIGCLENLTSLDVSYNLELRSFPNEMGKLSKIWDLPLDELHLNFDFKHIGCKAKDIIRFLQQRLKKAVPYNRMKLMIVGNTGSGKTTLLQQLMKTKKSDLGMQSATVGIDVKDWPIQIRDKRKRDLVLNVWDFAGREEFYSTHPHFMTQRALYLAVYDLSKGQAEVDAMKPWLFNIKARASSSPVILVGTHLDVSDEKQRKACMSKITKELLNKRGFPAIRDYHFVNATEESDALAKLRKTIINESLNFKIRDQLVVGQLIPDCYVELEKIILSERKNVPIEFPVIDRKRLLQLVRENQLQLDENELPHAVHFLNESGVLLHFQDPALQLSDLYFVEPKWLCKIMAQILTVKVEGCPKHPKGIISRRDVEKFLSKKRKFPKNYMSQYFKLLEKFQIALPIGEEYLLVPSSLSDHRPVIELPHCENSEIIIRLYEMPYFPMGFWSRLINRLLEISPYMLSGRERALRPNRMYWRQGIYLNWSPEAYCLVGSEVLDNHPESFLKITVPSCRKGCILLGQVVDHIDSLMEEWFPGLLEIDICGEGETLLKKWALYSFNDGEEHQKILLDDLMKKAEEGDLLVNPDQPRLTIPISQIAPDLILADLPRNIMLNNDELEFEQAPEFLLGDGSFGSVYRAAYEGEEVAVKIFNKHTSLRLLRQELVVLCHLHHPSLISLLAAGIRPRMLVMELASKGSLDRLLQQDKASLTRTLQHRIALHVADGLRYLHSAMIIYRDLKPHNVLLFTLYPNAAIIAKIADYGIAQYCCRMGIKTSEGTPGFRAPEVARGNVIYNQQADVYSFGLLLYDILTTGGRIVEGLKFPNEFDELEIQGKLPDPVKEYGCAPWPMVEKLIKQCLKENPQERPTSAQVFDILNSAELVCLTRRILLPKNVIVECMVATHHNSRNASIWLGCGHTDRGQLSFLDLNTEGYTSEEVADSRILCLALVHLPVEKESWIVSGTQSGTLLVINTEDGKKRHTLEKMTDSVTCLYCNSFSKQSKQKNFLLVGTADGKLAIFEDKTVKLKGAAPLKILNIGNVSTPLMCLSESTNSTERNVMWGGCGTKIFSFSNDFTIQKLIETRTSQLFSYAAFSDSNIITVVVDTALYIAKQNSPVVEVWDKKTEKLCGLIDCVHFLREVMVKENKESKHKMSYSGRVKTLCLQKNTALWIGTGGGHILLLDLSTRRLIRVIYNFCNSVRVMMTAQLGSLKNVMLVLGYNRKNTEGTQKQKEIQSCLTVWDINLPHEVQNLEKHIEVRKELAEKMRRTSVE

The target of this assay is recombinant GST-LRRK2 (wild-type) (Homo sapiens (Human), UniProt Q5S007). As to the kind of experiment: LRRK2 TR-FRET peptide assay (in vitro kinase activity), wild-type. It counts as biochemical. The following applies: 100 μM ATP, 100 nM biotin-LRRKtide substrate, 10 nM kinase, 60 minutes at room temperature. An outline of the steps:
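Recombinant GST-LRRK2 wild-type pre-incubated with serially diluted compound in 1% DMSO for 15 min at room temperature, with kinase activity read by TR-FRET using a peptide substrate. IC50 derived from eight-point dose-response curves, with inhibition normalized to the plate's control and background wells.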
On the technique in general: Time-resolved FRET reads energy transfer from a long-lived donor to a nearby acceptor.
With `COc1cc(N2CCOC2=O)ccc1-c1ccc(OC)c(-c2ccc3c(N[C@H](C)C4CC4)c(C(N)=O)nnc3c2)c1` [Compound 9-208, (R)-4-(1-cyclopropylethylamino)-7-(2′,4-dimethoxy-4′-(2-oxooxazolidin-3-yl)biphenyl-3-yl)cinnoline-3-carboxamide], the IC50 turned out to be 1100 nM.

Consider `C[C@@H](Nc1c(C(N)=O)nnc2cc(-c3cccc4c3CC(=O)N4)ccc12)C1CC1` [Compound 2-119, (R)-4-(1-cyclopropylethylamino)-7-(2-oxoindolin-4-yl)cinnoline-3-carboxamide], for which the IC50 turned out to be 18 nM.

As for `CC(C)Nc1c(-c2nccc(=O)[nH]2)nnc2cc(-c3ccc(S(C)(=O)=O)cc3)ccc12` [Compound 3-187, 2-(4-(isopropylamino)-7-(4-(methylsulfonyl)phenyl)cinnolin-3-yl)pyrimidin-4(3H)-one], the IC50 amounted to 280 nM.

With `CC(C)Nc1c(-c2cscn2)nnc2cc(-c3ccc(S(C)(=O)=O)cc3)ccc12` [Compound 3-70, N-isopropyl-7-(4-(methylsulfonyl)phenyl)-3-(thiazol-4-yl)cinnolin-4-amine], the IC50 is above 100000 nM.

As for `C#Cc1nnc2cc(-c3ccc(S(C)(=O)=O)cc3)ccc2c1NC(C)C` [Compound 10-87, 3-ethynyl-N-isopropyl-7-(4-(methylsulfonyl)phenyl)cinnolin-4-amine], the IC50 was found to be 990 nM.

Turning to `CC(C)(C)Nc1c(C(N)=O)nnc2cc(-c3ccc(S(C)(=O)=O)cc3)ccc12` [Compound 2-91, 4-(tert-butylamino)-7-(4-(methylsulfonyl)phenyl)cinnoline-3-carboxamide], the IC50 worked out at 45 nM.

As to `C[C@@H](Nc1c(C(N)=O)nnc2cc(-c3ccc(C(=O)N(C)C)cc3)ccc12)C1CC1` [Compound 2-114, (R)-4-(1-cyclopropylethylamino)-7-(4-(dimethylcarbamoyl)phenyl)cinnoline-3-carboxamide], the IC50 came out at 0.5 nM.

`COc1cc(-c2nccn2C)ccc1-c1ccc2c(N[C@H](C)C3CC3)c(C(N)=O)nnc2c1` [Compound 11-221, (R)-4-(1-cyclopropylethylamino)-7-(2-methoxy-4-(1-methyl-1H-imidazol-2-yl)phenyl)cinnoline-3-carboxamide]: the IC50 is 9 nM.

`Cc1nnc2cc(-c3ccc(S(C)(=O)=O)cc3)ccc2c1NC(C)C` [Compound 6-83, N-isopropyl-3-methyl-7-(4-(methylsulfonyl)phenyl)cinnolin-4-amine]: the half-maximal inhibitory concentration (IC50) was found to be 21600 nM.

Regarding `COc1cccc(Nc2ccc3c(NC(C)C)c(C(N)=O)nnc3c2)c1` [Compound 4-192, 4-(isopropylamino)-7-(3-methoxyphenylamino)cinnoline-3-carboxamide], the IC50 was 240 nM.

As to `COc1cc(Br)ccc1-c1ccc(OC)c(-c2ccc3c(N[C@H](C)C4CC4)c(C(N)=O)nnc3c2)c1` [Compound 2-203, (R)-7-(4′-bromo-2′,4-dimethoxybiphenyl-3-yl)-4-(1-cyclopropylethylamino)cinnoline-3-carboxamide], the IC50 was found to be 8700 nM.

`CNc1c(C(N)=O)nnc2cc(-c3ccc(S(C)(=O)=O)cc3)ccc12` [Compound 2-94, 4-(methylamino)-7-(4-(methylsulfonyl)phenyl)cinnoline-3-carboxamide]: the IC50 was 120 nM.

For `NC(=O)c1nnc2cc(-c3ccncc3)ccc2c1NCCCO` [Compound 2-136, 4-(3-hydroxypropylamino)-7-(pyridin-4-yl)cinnoline-3-carboxamide], the IC50 turned out to be 120 nM.

`C=Cc1ccc2c(NC(C)C)c(C(N)=O)nnc2c1` [Compound 2-95, 4-(isopropylamino)-7-vinylcinnoline-3-carboxamide]: the concentration for half-maximal inhibition (IC50) was 120 nM.

With `NC(=O)c1nnc2cc(-c3ccc(N4CCOCC4)cc3)ccc2c1N` [Compound 1-9, 4-amino-7-(4-morpholinophenyl)cinnoline-3-carboxamide], the IC50 was determined as 29700 nM.

For `CC(C)(C)c1ccc2nnc(C(N)=O)c(N)c2c1` [Compound 1-186, 4-amino-6-tert-butylcinnoline-3-carboxamide], the IC50 came to 4000 nM.

As to `CS(=O)(=O)c1ccc(-c2ccc3c(NCC4CCOCC4)c(C(N)=O)nnc3c2)cc1` [Compound 2-89, 7-(4-(methylsulfonyl)phenyl)-4-((tetrahydro-2H-pyran-4-yl)methylamino)cinnoline-3-carboxamide], the IC50 turned out to be 110 nM.

Consider `CC(C)Nc1c(C(N)=O)nnc2cc(CCO)ccc12` [Compound 7-198, 7-(2-hydroxyethyl)-4-(isopropylamino)cinnoline-3-carboxamide], for which the IC50 is 940 nM.

As to `CC(C)Nc1c(C(N)=O)nnc2cc(Sc3ccccc3)ccc12` [Compound 4-76, 4-(isopropylamino)-7-(phenylthio)cinnoline-3-carboxamide], the IC50 was 560 nM.

`COCc1ccccc1-c1ccc2c(N[C@H](C)C3CC3)c(C(N)=O)nnc2c1` [Compound 2-104, (R)-4-(1-cyclopropylethylamino)-7-(2-(methoxymethyl)phenyl)cinnoline-3-carboxamide]: the IC50 was 330 nM.

`C[C@@H](Nc1c(C(N)=O)nnc2cc(-c3ccccc3Cl)ccc12)C1CC1` [Compound 2-117, (R)-7-(2-chlorophenyl)-4-(1-cyclopropylethylamino)cinnoline-3-carboxamide]: the IC50 stood at 460 nM.

Take `CC(C)Nc1c(C(N)=O)nnc2ccc(N3CCOCC3)cc12` [Compound 4-191, 4-(isopropylamino)-6-morpholinocinnoline-3-carboxamide]: the IC50 was 1300 nM.

As to `CC(C)Nc1c(C(N)=O)nnc2cc(N3CCCC3=O)ccc12` [Compound 4-85, 4-(isopropylamino)-7-(2-oxopyrrolidin-1-yl)cinnoline-3-carboxamide], the IC50 was 170 nM.

`CC[C@@H](C)Nc1c(C(N)=O)nnc2cc(-c3ccc(S(C)(=O)=O)cc3)ccc12` [Compound 2-37, (R)-(sec-butylamino)-7-(4-(methylsulfonyl)phenyl)cinnoline-3-carboxamide]: the IC50 was below 6 nM.

For `COc1cc(-c2nccnc2OC)ccc1-c1ccc2c(N[C@H](C)C3CC3)c(C(N)=O)nnc2c1` [Compound 11-220, (R)-4-(1-cyclopropylethylamino)-7-(2-methoxy-4-(3-methoxypyrazin-2-yl)phenyl)cinnoline-3-carboxamide], the IC50 amounted to 25 nM.

Consider `CC(C)Nc1c(C(N)=O)nnc2cc(-c3cscn3)ccc12` [Compound 5-55, 4-(isopropylamino)-7-(thiazol-4-yl)cinnoline-3-carboxamide], for which the concentration for half-maximal inhibition (IC50) is 13 nM.

For `C[C@@H](Nc1c(C(N)=O)nnc2cc(-c3ccccc3OC(F)(F)F)ccc12)C1CC1` [Compound 2-108, (R)-4-(1-cyclopropylethylamino)-7-(2-(trifluoromethoxy)phenyl)cinnoline-3-carboxamide], the IC50 was determined as 4300 nM.

For the compound `C[C@@H](Nc1c(C(N)=O)nnc2cc(-c3ccc(N4CCOC4=O)cc3)ccc12)C1CC1` [Compound 9-213, (R)-4-(1-cyclopropylethylamino)-7-(4-(2-oxooxazolidin-3-yl)phenyl)cinnoline-3-carboxamide], the concentration for half-maximal inhibition (IC50) stood at 1 nM.

Regarding `CC(C)Nc1c(C(N)=O)nnc2cc(-c3cccc(F)c3)ccc12` [Compound 2-45, 7-(3-fluorophenyl)-4-(isopropylamino)cinnoline-3-carboxamide], the IC50 is 84 nM.

Regarding `COc1ccc(Br)cc1-c1ccc2c(N[C@H](C)C3CC3)c(C(N)=O)nnc2c1` [Compound 2-109, (R)-7-(5-bromo-2-methoxyphenyl)-4-(1-cyclopropylethylamino)cinnoline-3-carboxamide], the IC50 came to 710 nM.

Take `CS(=O)(=O)c1ccc(-c2ccc3c(NC4COC4)c(C(N)=O)nnc3c2)cc1` [Compound 2-27, 7-(4-(methylsulfonyl)phenyl)-4-(oxetan-3-ylamino)cinnoline-3-carboxamide]: the IC50 was determined as 180 nM.

With `CC(C)Nc1c(C(N)=O)nnc2ccc(-c3cn[nH]c3)cc12` [Compound 2-127, 4-(isopropylamino)-6-(1H-pyrazol-4-yl)cinnoline-3-carboxamide], the IC50 was below 6 nM.

As for `CC(C)Nc1c(-c2nc[nH]n2)nnc2cc(-c3ccc(S(C)(=O)=O)cc3)ccc12` [Compound 8-200, N-Isopropyl-7-(4-(methylsulfonyl)phenyl)-3-(1H-1,2,4-triazol-3-yl)cinnolin-4-amine], the IC50 was found to be 420 nM.

Regarding `CC(C)Nc1c(C(N)=O)nnc2ccc(-c3nccs3)cc12` [Compound 2-130, 4-(isopropylamino)-6-(thiazol-2-yl)cinnoline-3-carboxamide], the IC50 is 570 nM.

Regarding `CC(C)Nc1c(C(N)=O)nnc2cc(Oc3ccccc3)ccc12` [Compound 4-74, 4-(isopropylamino)-7-phenoxycinnoline-3-carboxamide], the IC50 was found to be 490 nM.

Regarding `COc1ccc(C(=O)N(C)C)cc1-c1ccc2c(N[C@H](C)C3CC3)c(C(N)=O)nnc2c1` [Compound 2-107, (R)-4-(1-cyclopropylethylamino)-7-(5-(dimethylcarbamoyl)-2-methoxyphenyl)cinnoline-3-carboxamide], the IC50 is 48 nM.

On to `COc1ccc(N2CCOC2=O)cc1-c1ccc2c(N[C@H](C)C3CC3)c(C(N)=O)nnc2c1` [Compound 9-206, (R)-4-(1-cyclopropylethylamino)-7-(2-methoxy-5-(2-oxooxazolidin-3-yl)phenyl)cinnoline-3-carboxamide], for which the IC50 is 54 nM.

On to `CN(C)c1cccc(-c2ccc3c(N)c(C(N)=O)nnc3c2)c1` [Compound 1-8, 4-amino-7-(3-(dimethylamino)phenyl)cinnoline-3-carboxamide], for which the IC50 came to 250 nM.

Regarding `C[C@@H](Nc1c(C(N)=O)nnc2cc(-c3cccc(OCC4CC4)c3)ccc12)C1CC1` [Compound 2-113, (R)-4-(1-cyclopropylethylamino)-7-(3-(cyclopropylmethoxy)phenyl)cinnoline-3-carboxamide], the IC50 was 51 nM.
